Assay [1] addresses Recombinant PRC2 (EZH2-Y641F) (Homo sapiens (Human), UniProt Q15910, Y641F). The assay can be described thus: In vitro methyltransferase activity assay (LANCE Ultra). Type of assay: biochemical. Conditions: for IC50: 2.5 μM SAM/250 nM H3(1-50)K27me1, 3 hours, room temperature; for inhibitory activity against the enzyme (in words): SAR comment on Table 1, reduced relative to comparator compounds (P-7, P-13/14). As to the method:
Recombinant PRC2 (EZH2-Y641F) was purchased from Active motif, S-adenosyl-methionine (SAM) and Poly-L-lysine (PLL) were purchased from Sigma-Aldrich, and H3(1-50)K27me1 peptide was purchased from Cisbio. LANCEUltrasystem (Perkinelmer) was used for detection system. In the enzyme activity test, compounds to be tested were diluted by 8 gradient points in a ratio of 1:3, and added into each well in a reaction plate, and 100 ng recombinase was added, followed by a buffer [20 mM Tris pH8.5, 2 mM MgCl2, 0.01% Tween-20, 1 mM TCEP] containing 2.5 μM SAM/250 nM H3 (1-50)K27me1 premixtures. Enzymatic reaction thus began at room temperature. After reacted for 3 hours, a detection solution premixed with PLL, detection antibody and Ulight was added, and reacted for 1 hour at room temperature. The fluorescence value was then read on a Tecan infinite pro. IC50 was calculated by fitting in a four-factor model in the XLfit software.
On the technique in general: In TR-FRET formats the signal depends on donor and acceptor labels being close together.

In another assay the test system is Pfeiffer cells. The assay can be described thus: Cell proliferation assay (Cell counting kit-8, 6 days). Conditions: Pfeiffer (CRL-2632), 6 days culture. Type of assay: cell-based. The protocol:
The used cell lines Pfeiffer (CRL-2632), suDHL-6 (CRL-2959) and suDHL-10 (CRL-2963) were obtained from American Type Culture Collection (ATCC). All cell lines were cultured in RPMI-1640 medium (Gibco) containing 10% fetal bovine serum (Gibco). The cultured cells were harvested by centrifugation and the cell density was determined using a CounterStar cell counter. Appropriate number of cells were plated in a 96-well culture plate and incubated overnight. Compounds to be tested were diluted by 8 gradient points in a ratio of 1:3 and added into corresponding wells. After continuing to culture for 6 days, the number of viable cells was measured with Cell counting kit-8, and the absorbance value was read on Tecan infinite pro. The IC50 was calculated by fitting in a four-parameter model in the XLfit software.

Chain of Recombinant PRC2 (EZH2-Y641F) (Q15910 whole entry Y641F): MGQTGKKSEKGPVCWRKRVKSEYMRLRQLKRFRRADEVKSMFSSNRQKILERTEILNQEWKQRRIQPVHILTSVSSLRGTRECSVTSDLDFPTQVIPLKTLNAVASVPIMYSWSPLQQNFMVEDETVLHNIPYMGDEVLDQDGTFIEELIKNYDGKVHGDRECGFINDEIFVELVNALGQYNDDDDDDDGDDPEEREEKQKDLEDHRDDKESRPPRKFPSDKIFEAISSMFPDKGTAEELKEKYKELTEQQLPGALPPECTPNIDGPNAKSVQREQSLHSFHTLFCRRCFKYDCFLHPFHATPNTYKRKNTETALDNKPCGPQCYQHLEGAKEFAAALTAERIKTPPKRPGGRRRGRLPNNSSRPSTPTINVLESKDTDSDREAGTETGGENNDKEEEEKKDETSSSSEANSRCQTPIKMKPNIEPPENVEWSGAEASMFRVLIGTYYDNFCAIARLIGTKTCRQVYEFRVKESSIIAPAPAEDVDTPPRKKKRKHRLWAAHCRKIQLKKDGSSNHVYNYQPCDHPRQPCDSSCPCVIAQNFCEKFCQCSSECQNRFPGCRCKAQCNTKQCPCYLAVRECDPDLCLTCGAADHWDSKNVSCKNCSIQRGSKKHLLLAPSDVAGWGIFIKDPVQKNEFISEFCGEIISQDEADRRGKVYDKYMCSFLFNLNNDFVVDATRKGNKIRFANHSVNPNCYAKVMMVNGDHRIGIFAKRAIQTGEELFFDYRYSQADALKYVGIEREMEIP
Chain of Recombinant PRC2 (EZH2-Y641F) (O75530 whole entry partner): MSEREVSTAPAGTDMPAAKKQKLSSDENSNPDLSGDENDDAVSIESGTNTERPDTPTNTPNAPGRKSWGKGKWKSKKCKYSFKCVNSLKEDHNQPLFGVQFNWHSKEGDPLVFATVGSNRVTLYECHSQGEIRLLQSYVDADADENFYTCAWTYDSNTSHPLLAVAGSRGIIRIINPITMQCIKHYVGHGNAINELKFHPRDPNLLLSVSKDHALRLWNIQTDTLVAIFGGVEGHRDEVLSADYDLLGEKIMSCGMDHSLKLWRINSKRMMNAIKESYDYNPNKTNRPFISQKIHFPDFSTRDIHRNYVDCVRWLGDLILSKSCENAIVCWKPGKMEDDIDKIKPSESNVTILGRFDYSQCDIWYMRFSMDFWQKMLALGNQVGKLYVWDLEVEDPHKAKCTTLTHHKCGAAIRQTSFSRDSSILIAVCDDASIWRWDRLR
Chain of Recombinant PRC2 (EZH2-Y641F) (Q15022 whole entry partner): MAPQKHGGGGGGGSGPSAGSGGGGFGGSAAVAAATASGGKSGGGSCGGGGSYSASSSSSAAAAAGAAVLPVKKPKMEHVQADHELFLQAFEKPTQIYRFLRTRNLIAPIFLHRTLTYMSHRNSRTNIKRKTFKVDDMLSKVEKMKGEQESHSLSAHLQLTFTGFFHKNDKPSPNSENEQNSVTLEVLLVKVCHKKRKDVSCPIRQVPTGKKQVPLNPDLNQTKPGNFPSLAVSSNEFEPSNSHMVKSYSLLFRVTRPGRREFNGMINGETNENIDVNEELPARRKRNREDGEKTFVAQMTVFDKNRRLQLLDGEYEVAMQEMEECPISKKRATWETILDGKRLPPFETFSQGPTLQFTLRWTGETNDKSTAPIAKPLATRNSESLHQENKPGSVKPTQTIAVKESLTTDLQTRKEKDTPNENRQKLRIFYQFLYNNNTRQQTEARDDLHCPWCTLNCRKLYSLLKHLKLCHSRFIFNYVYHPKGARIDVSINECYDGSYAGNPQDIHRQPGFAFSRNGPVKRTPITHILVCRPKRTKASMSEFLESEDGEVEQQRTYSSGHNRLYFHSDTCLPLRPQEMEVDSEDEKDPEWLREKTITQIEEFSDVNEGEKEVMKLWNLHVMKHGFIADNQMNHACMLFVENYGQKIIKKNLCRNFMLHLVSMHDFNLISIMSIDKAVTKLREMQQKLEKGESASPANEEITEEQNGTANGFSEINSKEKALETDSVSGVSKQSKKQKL
Chain of Recombinant PRC2 (EZH2-Y641F) (Q09028 whole entry partner): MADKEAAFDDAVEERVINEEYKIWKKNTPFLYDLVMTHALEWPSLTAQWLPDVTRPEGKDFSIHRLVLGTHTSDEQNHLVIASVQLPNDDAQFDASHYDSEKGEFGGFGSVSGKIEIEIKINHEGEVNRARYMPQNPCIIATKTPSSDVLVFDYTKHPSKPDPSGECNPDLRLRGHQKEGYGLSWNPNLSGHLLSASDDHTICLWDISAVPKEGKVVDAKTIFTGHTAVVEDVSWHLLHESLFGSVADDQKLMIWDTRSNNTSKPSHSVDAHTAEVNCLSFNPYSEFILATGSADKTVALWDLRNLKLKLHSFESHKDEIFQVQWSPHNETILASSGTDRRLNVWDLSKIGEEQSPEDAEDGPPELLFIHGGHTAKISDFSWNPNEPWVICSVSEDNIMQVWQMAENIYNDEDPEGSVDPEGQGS
Chain of Recombinant PRC2 (EZH2-Y641F) (Q6ZN18 whole entry partner): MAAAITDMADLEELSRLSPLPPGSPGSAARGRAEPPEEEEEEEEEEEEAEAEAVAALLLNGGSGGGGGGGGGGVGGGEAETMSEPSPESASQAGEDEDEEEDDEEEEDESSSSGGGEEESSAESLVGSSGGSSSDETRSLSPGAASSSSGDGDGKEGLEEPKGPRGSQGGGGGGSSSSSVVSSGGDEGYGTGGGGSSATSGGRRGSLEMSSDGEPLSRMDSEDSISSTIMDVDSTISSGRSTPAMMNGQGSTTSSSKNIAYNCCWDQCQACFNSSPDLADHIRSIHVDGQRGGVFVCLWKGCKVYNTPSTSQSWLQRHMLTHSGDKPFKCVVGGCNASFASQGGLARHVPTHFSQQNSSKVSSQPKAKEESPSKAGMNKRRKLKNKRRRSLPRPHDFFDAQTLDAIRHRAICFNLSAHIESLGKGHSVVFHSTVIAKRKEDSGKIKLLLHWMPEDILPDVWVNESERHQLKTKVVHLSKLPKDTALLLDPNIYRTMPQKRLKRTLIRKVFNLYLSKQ

In general, IC50 refers to the concentration that inhibits the measured activity by half. Take `CCc1c(C(=O)NCc2c(C)cc(C)[nH]c2=O)cc2c(cnn2C)c1N(CC)[C@H]1CC[C@H](N2CC(OC)C2)CC1` [P-19]: the IC50 in assay [1] came out at 45 nM; in the assay with Pfeiffer cells it was 76 nM.

Regarding `CCN(c1c(C)c(C(=O)NCc2c(C)cc(C)[nH]c2=O)cc2c1cnn2C)C1CCN(CC(F)(F)F)CC1` [P-8, N-((4,6-dimethyl-2-oxo-1,2-dihydropyridin-3-yl)methyl)-4-(ethyl(1-(2,2,2-trifluoroethyl)piperidin-4-yl)amino)-1,5-dimethyl-1H-indazole-6-carboxamide], the IC50 in assay [1] was 53 nM.

Regarding `CCN(c1c(C)c(C(=O)NCc2c(C)cc(C)[nH]c2=O)cc2c1cnn2C)C1CCN(C2COC2)CC1` [P-48, N-((4,6-dimethyl-2-oxo-1,2-dihydropyridin-3-yl)methyl)-4-(ethyl(1-(oxetane-3-yl)piperidin-4-yl)amino)-1,5-dimethyl-1H-indazole-6-carboxamide], the IC50 in assay [1] came to 49 nM; in the assay on Pfeiffer cells (Homo sapiens, 144 h), 305 nM.

With `CCc1c(C(=O)NCc2c(C)cc(C)[nH]c2=O)cc2c(cnn2C)c1N(CC)C1CCC(N2CCNCC2)CC1` (stereo not shown) [P-29], the IC50 was 34 nM in assay [1] and 191 nM in the assay with Pfeiffer cells (Homo sapiens, 144 h). On the same counts, the results for `CCc1c(C(=O)NCc2c(C)cc(C)[nH]c2=O)cc2c(cnn2C)c1N(CC)C1CCC(N2CCOCC2)CC1` (stereo not shown) [P-24] are 9 nM and 169 nM.

For `CCN(c1c(C)c(C(=O)NCc2c(C)cc(C)[nH]c2=O)cc2c1cnn2C)C1CCC(N2CC(OCC(F)(F)F)C2)CC1` (stereo not shown) [P-37], the half-inhibitory concentration (IC50) in assay [1] worked out at 12 nM; in the assay on Pfeiffer cells (Homo sapiens, 144 h), 297 nM.

For `CCc1c(C(=O)NCc2c(C)cc(C)[nH]c2=O)cc2c(cnn2C)c1N(CC)C1CCC(N2CC(O)C2)CC1` (stereo not shown) [P-47, N-((4,6-dimethyl-2-oxo-1,2-dihydropyridin-3-yl)methyl)-5-ethyl-4-(ethyl(4-(3-hydroxyazetidin-1-yl)cyclohexyl)amino)-1-methyl-1H-indazole-6-carboxamide], the IC50 in assay [1] came out at 7 nM; in the assay with Pfeiffer cells (Homo sapiens, 144 h), 178 nM. The like results for `CCOC1CN(C2CCC(N(CC)c3c(CC)c(C(=O)NCc4c(C)cc(C)[nH]c4=O)cc4c3cnn4C)CC2)C1` (stereo not shown) [P-39] were, in that order, 7 nM and 5 nM.

As to `CCc1c(C(=O)NCc2c(C)cc(C)[nH]c2=O)cc2c(cnn2C)c1N(CC)C1CCC(NC(F)(F)F)CC1` (stereo not shown) [P-25], the IC50 was 46 nM in assay [1] and 278 nM in the assay with Pfeiffer cells (Homo sapiens, 144 h).

As to `CCN(c1c(C)c(C(=O)NCc2c(OC)cc(C)[nH]c2=O)cc2c1cnn2C)C1CCN(CC(F)(F)F)CC1` [P-11, 4-(ethyl(1-(2,2,2-trifluoroethyl)piperidin-4-yl)amino)-N-((4-methoxy-6-methyl-2-oxo-1,2-dihydropyridin-3-yl)methyl)-1,5-dimethyl-1H-indazole-6-carboxamide], the IC50 in assay [1] was 13 nM; in the assay with Pfeiffer cells (Homo sapiens, 144 h) it was 292 nM. For `CCN(c1c(C)c(C(=O)NCc2c(OC)cc(C)[nH]c2=O)cc2nn(C)cc12)C1CCN(CC(F)(F)F)CC1` [P-12, 4-(ethyl(1-(2,2,2-trifluoroethyl)piperidin-4-yl)amino)-N-((4-methoxy-6-methyl-2-oxo-1,2-dihydropyridin-3-yl)methyl)-2,5-dimethyl-2H-indazole-6-carboxamide], the IC50 in assay [1] turned out to be 117 nM. For `CCN(c1c(C)c(C(=O)NCc2c(OC)cc(C)[nH]c2=O)cc2c1cnn2C)C1CCOCC1` [P-1, 4-(ethyl (tetrahydro-2H-pyran-4-yl)amino)-N-((4-methoxy-6-methyl-2-oxo-1,2-dihydropyridin-3-yl)methyl)-1,5-dimethyl-1H-indazole-6-carboxamide], the half-inhibitory concentration (IC50) in assay [1] worked out at 25 nM; in the assay with Pfeiffer cells (Homo sapiens, 144 h), 93 nM. On to `CCN(c1c(C)c(C(=O)NCc2c(C)cc(C)[nH]c2=O)cc2c1cnn2C)C1CCOCC1` [P-7, N-((4,6-dimethyl-2-oxo-1,2-dihydropyridin-3-yl)methyl)-4-(ethyl(tetrahydro-2H-pyran-4-yl)amino)-1,5-dimethyl-1H-indazole-6-carboxamide], for which it took 158 nM to reach half-maximal inhibition with Pfeiffer cells (Homo sapiens, 144 h) (IC50). In turn, `CCN(c1c(C)c(C(=O)NCc2c(OC)cc(C)[nH]c2=O)cc2c1cnn2C(F)F)C1CCOCC1` [P-5, 1-(difluoromethyl)-4-(ethyl(tetrahydro-2H-pyran-4-yl)amino)-N-((4-methoxy-6-methyl-2-oxo-1,2-dihydropyridin-3-yl)methyl)-5-methyl-1H-indazole-6-carboxamide] returned an IC50 with Pfeiffer cells (Homo sapiens, 144 h) of 71 nM. Take `CCN(c1c(C)c(C(=O)NCc2c(OC)cc(C)[nH]c2=O)cc2c1cnn2C)C1CCC(N(C)CCOC)CC1` (stereo not shown) [P-15, 4-(ethyl(4-((2-methoxyethyl) (methyl)amino)cyclohexyl)amino)-N-((4-methoxy-6-methyl-2-oxo-1,2-dihydropyridin-3-yl)methyl)-1,5-dimethyl-1H-indazole-6-carb oxamide]: the IC50 in assay [1] stood at 7 nM; in the assay with Pfeiffer cells (Homo sapiens, 144 h), 76 nM.

On to `CCN(c1c(C)c(C(=O)NCc2c(C)cc(C)[nH]c2=O)cc2c1c(C)nn2C)C1CCC(N(C)C)CC1` (stereo not shown) [P-42], for which, in assay [1], the IC50 came to 253 nM and the “inhibitory activity against the enzyme (in words)” value (shortened to “inhibitory activity”) is “greatly reduced”. With `CCN(c1c(C2CC2)c(C(=O)NCc2c(C)cc(C)[nH]c2=O)cc2c1cnn2C)C1CCOCC1` [P-28], the IC50 in assay [1] stood at 402 nM; in the assay with Pfeiffer cells (Homo sapiens, 144 h), 702 nM. As for `CCN(c1c(C)c(C(=O)NCc2c(C)cc(C)[nH]c2=O)cc2c1cnn2C)[C@H]1CC[C@@H](N(C)C)CC1` [P-13, N-((4,6-dimethyl-2-oxo-1,2-dihydropyridin-3-yl)methyl)-4-(((1S, 4S)-4-(dimethylamino)cyclohexyl) (ethyl)amino)-1,5-dimethyl-1H-indazole-6-carboxamide], the IC50 in assay [1] is 23 nM. Take `CCc1c(C(=O)NCc2c(OC)cc(C)[nH]c2=O)cc2c(cnn2C)c1N(CC)C1CCC(N(C)C)CC1` (stereo not shown) [P-22, 4-((4-(dimethylamino)cyclohexyl)(ethyl)amino)-5-ethyl-N-((4-methoxy-6-methyl-2-oxo-1,2-dihydropyridin-3-yl)methyl) 1-methyl-1H-indazole-6-carboxamide]: the IC50 in assay [1] stood at 5 nM; in the assay with Pfeiffer cells, 66 nM. `CCc1c(C(=O)NCc2c(C)cc(C)[nH]c2=O)cc2c(cnn2C)c1N(CC)C1CCC(N2CC(C)C2)CC1` [P-18, N-((4,6-dimethyl-2-oxo-1,2-dihydropyridin-3-yl)methyl)-5-ethyl-4-(ethyl((1S,4S)-4-(3-methylazetiazin-1-yl)cyclohexyl)amino)-1-methyl-1H-indazole-6-carboxamide]: the IC50 in assay [1] was determined as 12 nM; in the assay with Pfeiffer cells, 7 nM. In the case of `CCN(c1c(C)c(C(=O)NCc2c(OC)cc(C)[nH]c2=O)cc2cn[nH]c12)C1CCOCC1` [P-3, 7-(ethyl(tetrahydro-2H-pyran-4-yl)amino)-N-((4-methoxy-6-methyl-2-oxo-1,2-dihydropyridin-3-yl)methyl)-6-methyl-1H-imidazole-5-carboxamide], in assay [1], the IC50 was 154 nM and the “inhibitory activity” value was “significantly reduced”. With `CCN(c1c(C)c(C(=O)NCc2c(C)cc(C)[nH]c2=O)cc2c1cnn2CC1CCOC1)C1CCOCC1` (stereo not shown) [P-40], the IC50 in the assay with Pfeiffer cells (Homo sapiens, 144 h) came to 268 nM. Regarding `CCN(c1c(C)c(C(=O)NCc2c(OC)cc(C)[nH]c2=O)cc2[nH]ncc12)C1CCOCC1` [P-2, 4-(ethyl(tetrahydro-2H-pyran-4-yl)amino)-N-((4-methoxy-6-methyl-2-oxo-1,2-dihydropyridin-3-yl)methyl)-5-methyl-1H-indazole-6-carboxamide], the half-inhibitory concentration (IC50) in assay [1] came to 24 nM. As for “7-(ethyl(tetrahydro-2H-pyran-4-yl)amino)-N-((4-methoxy-6-methyl-2-oxo-1,2-dihydropyridin-3-yl)methyl)-1,6-dimethyl-1H-imidazole-5-carboxamide [P-4]”, in assay [1], the IC50 worked out at 502 nM and the “inhibitory activity” value is given as “significantly reduced”.

Turning to `CCN(c1c(C)c(C(=O)NCc2c(C)cc(C)[nH]c2=O)cc2c1cnn2C)C1CCC(C)(N)CC1` (stereo not shown) [P-46], the IC50 in assay [1] worked out at 53 nM. For the molecule `CCN(c1c(C)c(C(=O)NCc2c(C)cc(C)[nH]c2=O)cc2c1cnn2C)C1CCC(N(C)CC(F)F)CC1` (stereo not shown) [P-45, 4-((4-((2,2-difluoroethyl) (methyl)amino)cyclohexyl)(ethyl)amino)-N-((4,6-dimethyl-2-oxo-1,2-dihydropyridin-3-yl)methyl)-1,5-dimethyl-1H-indazole-6-carboxamide], the IC50 in assay [1] was determined as 27 nM. Regarding `CCN(c1c(C)c(C(=O)NCc2c(OC)cc(C)[nH]c2=O)cc2nn(C)cc12)C1CCOCC1` [P-50, 4-(ethyl(tetrahydro-2H-pyran-4-yl)amino)-N-((4-methoxy-6-methyl-2-oxo-1,2-dihydropyridin-3-yl)methyl)-2,5dimethyl-2H-indazole-6-carboxamide], in assay [1], the IC50 is 148 nM and the “inhibitory activity” value is given as “significantly reduced”. As to `CCN(c1c(C)c(C(=O)NCc2c(C)cc(C)[nH]c2=O)cc2c1cnn2C)C1CCN(C2CCOCC2)CC1` [P-33], in assay [1], the IC50 came to 37 nM.
